The text below walks through data of patent publication US5756458A, “Stabilized potent GRF analogs” (Pharmacia & Upjohn Company, priority 1995, dated 1998).

Where two headings read alike, the source gives them in different places. Where no end group is shown, it is not given here.

For series [1], the system named is primary cultures of rat anterior pituitary cells. Conditions: GH secretion; cited from earlier work.
Series [2] is described as follows: In vitro stability in bovine plasma. The format is in vitro ADME. Here is the method: | ^.noteq. Peptides at 0.03 mM were incubated with bovine plasma at | 37° C. for one hr. Aliquots of 0.1 ml were quenched with 2 ml of | 0.2% aqueous trifluoroacetic acid solution and subjected to solid phase | extraction and HPLC analysis as described in T.M. Kubiak et al. Drug Met. | Disp. 17, 393-397 (1989).

The test system of series [3] is Steers. It is filed as in vivo, steer. Here is the method: | ^# Steers were injected iv with peptides at the dose of 0.01 nmol/kg | and the procedures were as described in W.M. Moseley et al. J. Endocr. | 117, 253-259 (1988). Relative potency was calculated on the basis of the | area under serum growth hormone (GH) curve monitored for 2 hrs after | treatment.
In series [4] the test system is Steers. The format is in vivo, steer. Conditions: STUDY II, subcutaneous 0.75 nmol/kg, area under serum GH curve, 6 hrs after treatment, bGRF(1-44)NH2 = 100. Here is the method: | ^.sctn. Steers were injected subcutaneously with peptides at the dose | of 0.75 nmol/kg. Relative potency was calculated on the basis of the area | under serum GH curve monitored for 6 hrs after treatment.

Series [5] deals with rat pituitary cell cultures. The experiment in a line: Growth hormone (GH) release in rat pituitary cell cultures in vitro (FIG. 1). Conditions: Leu^27 -bGRF(1-29)NH2 assay standard. The format is cell-based. Here is the method: Effect of analogs of Thr^2, Ala^15, Leu^27 -bGRF(1-29)NH2 on growth hormone (GH) release in rat pituitary cell cultures in vitro. The assay was performed according to procedure of Frohman and Downs, Methods Enzymol. 124, 371-389 (1986). […] Leu^27 -bGRF(1-29)NH2 was used as the assay standard.

Series [6] has as its system meal-fed Holstein steers. The experiment in a line: Mean serum GH in meal-fed Holstein steers after intravenous injection (FIG. 2). The format is in vivo. Particulars: dose of 0.01 nmol/kg (10 pmol/kg). Here is the method:
The enhanced in vivo potency of the compounds of this invention where R19 is Val or Ile is illustrated in FIGS. 1 and 2.
Mean concentration of serum growth hormone (GH) in meal-fed Holstein steers after intravenous injection (10 pmol/kg) of GRF analogs. The assay was performed as described by Moseley et al., J. Endocrinol. 117, 252-259 (1988). Bovine GRF(1-44)NH2 was used as the assay standard.

Series [7] deals with T1, plasma DPP-IV (Bos taurus, UniProt P81425).
T1 construct: from tissue; host or cells: bovine plasma (two different plasma pools)
T1 sequence (P81425 38-765 limits assumed): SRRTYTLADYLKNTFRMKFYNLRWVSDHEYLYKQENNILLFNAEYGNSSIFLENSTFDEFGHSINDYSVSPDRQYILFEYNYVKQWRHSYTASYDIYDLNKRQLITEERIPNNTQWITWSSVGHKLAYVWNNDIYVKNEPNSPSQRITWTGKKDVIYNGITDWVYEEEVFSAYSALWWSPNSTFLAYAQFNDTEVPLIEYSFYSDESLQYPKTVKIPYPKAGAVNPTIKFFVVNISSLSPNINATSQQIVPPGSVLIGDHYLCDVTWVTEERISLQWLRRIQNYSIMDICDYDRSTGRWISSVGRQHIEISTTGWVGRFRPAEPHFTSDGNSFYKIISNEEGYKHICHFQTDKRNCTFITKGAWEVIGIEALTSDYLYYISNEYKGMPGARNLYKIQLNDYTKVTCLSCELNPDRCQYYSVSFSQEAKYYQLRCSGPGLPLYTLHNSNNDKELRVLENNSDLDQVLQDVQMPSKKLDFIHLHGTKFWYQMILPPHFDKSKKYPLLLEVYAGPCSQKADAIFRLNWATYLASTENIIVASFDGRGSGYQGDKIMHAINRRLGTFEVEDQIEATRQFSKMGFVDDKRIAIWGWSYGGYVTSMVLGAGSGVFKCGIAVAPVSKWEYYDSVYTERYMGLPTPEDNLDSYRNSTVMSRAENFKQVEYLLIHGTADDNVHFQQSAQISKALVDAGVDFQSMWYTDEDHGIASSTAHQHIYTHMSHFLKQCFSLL
The experiment in a line: Cleavage after residue 2 by plasma DPP-IV on incubation in bovine plasma in vitro. It is filed as in vitro ADME. The arrangement: Cleavage after residue 2 (footnote mark ++): key to the marks not given beside the values. Here is the method:
Evidence of the improved metabolic stability of the compounds of this invention (when compared to native GRF) is illustrated in Table I by the in vitro stability data provided. It is noteworthy that in bovine plasma in vitro, the analogs having Thr^2, Val^2, Ile^2 or Leu^2 were not cleaved after residue 2 by plasma DPP-IV under the experimental conditions used in the study (one hour plasma incubation).
++ No cleavage after residue 2 was observed upon incubation in bovine
plasma in vitro over a 1 hr incubation period.

Where [8] appears, read: bovine plasma, STUDY II, plasma pool 2, peptide 0.03 mM, bovine plasma, 37° C., one hr, read-out: In vitro stability (% Inact peptide after 1 hr).
Setting [9] is: bovine plasma, STUDY I, plasma pool 1, peptide 0.03 mM, bovine plasma, 37° C., one hr, read-out: In vitro stability (% Inact peptide after 1 hr).

Turning to “H-Tyr-Ala-Asp-Ala-Ile-Phe-Ser-Ser-Ala-Tyr-Arg-Arg-Leu-Leu-Ala-Gln-Leu-Ala- Ser-Arg-Arg-Leu-Leu-Gln-Glu-Leu-Leu-Ala-Arg-NH2 /OH [free acid form] (H-YADAIFSSAYRRLLAQLASRRLLQELLAR-OH) [29-amino acid analog of hGRF designed by G. Velicelebi, et al., free acid form]”, the “Potency relative to hGRF(1-40)OH (times as potent)” value in series [1] was 1/6.

“H-YIDAIFTNSYRKVLAQLSARKLLQDILNR-NH2 [Ile^2,Ala^15,Leu^27-bGRF(1-29)NH2]”: in series [2] (setting [8]), the remaining at 1 h, 0.03 mM worked out at 80.3%. Further, the “Expected potency relative to isomer Leu^2 Ala^15 Leu^27 bGRF(1-29)NH2 when the ED50 of each is determined and compared” value in series [3] (extrapolated from relative in vivo potency at 0.01 nmol/kg, ED50 not determined) is recorded as 10-20 times. Moreover, the “In vivo relative potency sc” value in series [4] is on record as 16c.

“H-YVDAIFTNSYRKVLAQLSARKLLQDILNR-NH2 [Val^2,Ala^15,Leu^27-bGRF(1-29)NH2]”: in series [2] (setting [8]), the remaining at 1 h, 0.03 mM came out at 83.4%.

As to “YADAIFTNSYRKVLAQLSARKLLQDILNR-NH2 [Ala^15,Leu^27-bGRF(1-29)NH2, reference compound]”, the remaining at 1 h, 0.03 mM in series [2] (setting [9]) came out at 56.2%.

Turning to “YTDAIFTNSYRKVLGQLSARKLLQDILNR-NH2 [Thr^2,Leu^27-bGRF(1-29)NH2]”, the remaining at 1 h, 0.03 mM in series [2] (setting [9]) came to 75.6%.

Turning to H-YTDAIFTNSYRKVLAQLSVRKLLQDILNR-NH2, the “GH-releasing bioactivity in vitro as compared with Thr^2, Ala^15, Leu^27 -bGRF(1-29)NH2” value in series [5] is on record as “increased”. Further, the “In vivo bioactivity compared with native GRF” value in series [6] was “more bioactive than the native GRF”.

As for “YADAIFTNSYRKVLGQLSARKLLQDILNR-NH2 [Leu^27-bGRF(1-29)NH2, reference compound]”, the remaining at 1 h, 0.03 mM in series [2] (setting [9]) amounted to 39.8%; in series [2] (setting [8]) it was 46.8%.

On to YTDAIFTNSYRKVLAQLSIRKLLQDILNR-NH2, for which the “GH-releasing bioactivity in vitro as compared with Thr^2, Ala^15, Leu^27 -bGRF(1-29)NH2” value in series [5] was “unchanged”. Further, the “In vivo bioactivity compared with native GRF” value in series [6] is “more bioactive than the native GRF”.

“H-YTDAIFTNSYRKVLAQLSARKLLQDILNR-NH2 [Thr^2,Ala^15,Leu^27-bGRF(1-29)NH2]” yielded a remaining at 1 h, 0.03 mM in series [2] (plasma, In vitro stability (% Inact peptide after 1 hr)) of 91.1%. In addition, in series [7], the “Cleavage after residue 2 (footnote mark ++)” value is “++” and the DPP-IV related cleavage result is “slight DPP-IV related cleavage”.

In the case of “YTDAIFTNSYRKVLAQLSLRKLLQDILNR-NH2 [Leu^19]”, in series [5], the “GH-releasing bioactivity in vitro as compared with Thr^2, Ala^15, Leu^27 -bGRF(1-29)NH2” value is listed as “deleterious”.

For “YLDAIFTNSYRKVLAQLSARKLLQDILNR-NH2 [Leu^2,Ala^15,Leu^27-bGRF(1-29)NH2, reference compound]”, the remaining at 1 h, 0.03 mM in series [2] (setting [8]) was found to be 86.3%.

For “H-Tyr-Ala-Asp-Ala-Ile-Phe-Ser-Ser-Ala-Tyr-Arg-Arg-Leu-Leu-Ala-Gln-Leu-Ala- Ser-Arg-Arg-Leu-Leu-Gln-Glu-Leu-Leu-Ala-Arg-NH2 /OH [amide analog] (H-YADAIFSSAYRRLLAQLASRRLLQELLAR-NH2) [29-amino acid analog of hGRF designed by G. Velicelebi, et al., amide form]”, in series [1], the “Potency relative to hGRF(1-40)OH (times as potent)” value was 1.57.

For bGRF(1-14)NH2 [reference compound], in series [3] (STUDY I, steers, iv 0.01 nmol/kg, area under serum GH curve, 2 hrs after treatment, native bGRF standard = 100), the “In vivo relative potency iv” value came to 100.
